{"source": "patent US12637498B2", "about": "“PDLIM2 as a biomarker for cancer and as an anti-cancer treatment target” (UNIVERSITY OF PITTSBURGH—OF THE COMMONWEALTH SYSTEM OF …, priority 2019, dated 2026)", "key": {"[1]": {"assay": "Toxicity: animal body weight and H&E staining of major organs", "format": "in vivo, mouse", "details": "mice with lung cancer; 1 mg/kg of 5-aza-dC and MS-275 twice per week for 6 weeks"}, "PDLIM2 [2]": {"test_system": "PDLIM2", "assay": "qPCR of PDLIM2 in RAW264.7 macrophages", "format": "cell-based, mouse", "description": "The indicated tissues or cells were subjected to RNA extraction, RNA reverse transcription and real-time PCR using trizol, reverse transcriptase, and Power SYBR Green PCR Master Mix (Thermo Fisher Scientific, Waltham, MA USA)."}, "BACH1 [3]": {"test_system": "BACH1", "assay": "ChIP and nuclear fraction IB of BACH1 in RAW264.7 macrophages", "format": "cell-based, mouse", "protocol": "Cells were collected after formaldehyde treatment. The chromatin DNA was extracted, broken into fragments of 300-1000 bp in length by sonication, and immunoprecipitated with antibodies to the target. IgG was used in immunoprecipitation as a control for nonspecific signal. DNA in the immunoprecipitation product was amplified by PCR.\nWhole-cell extracts were prepared by lysing cells in RIPA buffer. Nuclear extracts were prepared by lysing pellets in insoluble nuclear buffer (20 mM Tris, pH 8.0, 150 mM NaCl, 1% [wt/vol] SDS, 1% [vol/vol] NP-40, and 10 mM iodoacetamide) after the cytoplasm was extracted with the hypotonic buffer (20 mM HEPES, pH 8.0, 10 mM KCl, 1 mM MgCl2, 0.1% [vol/vol] Triton X-100, and 20% [vol/vol] glycerol). The purity of the nuclear fractions was confirmed by checking Hsp90 (cytoplasm) or lamin B/C (nuclear fraction). All the lysis buffers were supplemented with 1 mM PMSF and a protease inhibitor cocktail (Roche Molecular Biochemicals). The cell extracts were used for […]. Briefly, the cell extracts were separated on polyacrylamide gels followed by electrotransfer onto nitrocellulose membranes. […] Specific immune complexes were detected by enhanced chemiluminescence as specified by the manufacturer (Western Lightning ECL Pro; Amersham)."}, "BACH1 [4]": {"test_system": "BACH1", "assay": "IF analysis of BACH1 nuclear translocation in AMs of mice with lung tumors", "design": "species or system mouse", "details": "mice with lung tumors (urethane); in vivo treatment, 5 mg/ml in drinking water", "protocol": "(§1) The animal experiments were performed in accordance with the US National Institutes of Health (NIH) Guidelines on the Use of Laboratory Animals. All animals were maintained under pathogen-free conditions. […], […] and Lysozyme M-Cre mice have been described before (Sun et al., Nat Commun 2019; 10:5324; Zhou et al., Oncogene 2015; 34:3804-3814; Zhou et al., Cancer Immunol Res 2017; 5:257-268; Li et al., Oncoimmunology 2018; 7:e1435250). Luciferase-expressing mice, PD-1 deficient mice and CD80/CD86 deficient mice were purchased from The Jackson Laboratory. Except for the PD-1 deficient mice and CD80/CD86 deficient mice, which are under […] background, all other mice were backcrossed to FVB/N mice (The Jackson Laboratory) for more than ten generations, and then used to generate the experimental mice. […] Louis, MO, USA) once a week for six consecutive weeks (8-10). […] Surface tumors in mouse lungs were counted by three blinded readers under a dissecting microscope, and tumor diameters were measured by microcalipers. […] Stained proteins and their subcellular localizations were detected using a fluorescence microscope."}, "PDLIM2 [5]": {"test_system": "PDLIM2", "assay": "qPCR and IF of PDLIM2 in AMs of mice with lung tumors", "design": "species or system mouse", "details": "mice with lung tumors (urethane); in vivo treatment", "protocol": "as §1, with “microscope. […]” for “microscope.”"}, "PDLIM2 [6]": {"test_system": "PDLIM2", "assay": "qPCR analysis of PDLIM2 expression in human lung cancer cell lines", "format": "cell-based"}, "[7]": {"test_system": "lung cancer induced by urethane", "assay": "Urethane model of lung cancer, tumor examination", "format": "in vivo, mouse", "details": "for tumor number and tumor burden: WT mice, carboplatin and paclitaxel together", "protocol": "(§2) Urethane model: 6-8-week-old mice under FVB/N background were intraperitoneally (i.p.) injected with urethane (1 g/kg body weight, Sigma-Aldrich, St. Louis, MO, USA) once a week for six weeks. All mice were sacrificed for lung tumor examinations seven (for no drug treatment experiments) or six (for drug treatment experiments) weeks post urethane treatment. For drug treatment experiments, the epigenetic agents 5-aza-dC (1 mg/kg body weight, Sigma-Aldrich, St. Louis, MO, USA) and MS-275 (1 mg/kg body weight, Selleckchem, Houston, TX, USA), chemotherapeutic drugs carboplatin (30 mg/kg body weight, AdipoGen, San Diego, CA, USA) and paclitaxel (15 mg/kg body weight, AdipoGen, San Diego, CA, USA), and/or PD-1 neutralizing antibody (200 μg/mouse, BioXCell, West Lebanon, NH, USA) were i.p injected as indicated in FIG. 4. Surface tumors in mouse lungs were counted by three blinded readers under a dissecting microscope, and tumor diameters were measured by microcalipers. K-Ras^G12D model: 6-8-week-old mice under FVB/N background were intranasally administered 1×10^7 plaque-forming units of Cre-expressing adenovirus (adenocre; Gene Transfer Vector Core, University of Iowa, Iowa City, IA). Three months post AdenoCre treatment, all mice were sacrificed for lung tumor examinations.\nPDLIM2flx/flx/SP-C-rtTAtg/−/(tetO)7CMV-Cretg/tg (ΔSPC) mice under a pure FVB/N background and PDLIM2−/− mice under a pure BABL/C background have been described before (Sun et al., Nat. Commun. 2019. 10, 5324). For lung carcinogenesis, six to eight week old ΔSPC and wild type FVB/N mice were intraperitoneally (i.p.) injected with urethane (1 mg/g body weight, Sigma-Aldrich, St. Louis, MO, USA) once a week for six consecutive weeks, followed by different treatment as shown in FIGS. 45A and 49A. Mice were sacrificed for lung inflammation and tumor examinations at six weeks post urethane treatment. Surface tumors in mouse lungs were counted blinded under a dissecting microscope, and tumor diameters were measured by microcalipers. […]"}, "PD-L1 [8]": {"test_system": "PD-L1", "assay": "qPCR of PD-L1 in lung cancer cells", "format": "cell-based, human", "description": "Mouse lung tissues and BAL cells were subjected to RNA extraction, RNA reverse transcription and real-time PCR as described (Li et al., Oncoimmunology 7, e1435250 (2018); Sun et al., Bio. Protoc. 7, pii: e2287 (2017))."}, "PD-L1 [9]": {"test_system": "PD-L1", "assay": "IHC staining of PD-L1 in lung cancer (urethane model)", "format": "in vivo, mouse", "details": "carboplatin and paclitaxel (chemotherapy)", "protocol": "as §2\nMouse or tissues were excised, fixed in formalin, embedded in paraffin, and cut into […] sections. Sections were stained with H&E, or subjected to sequential incubations with different primary antibodies and peroxidase-conjugated goat anti-rabbit secondary antibodies. The human lung tumor tissue arrays were described previously (Sun et al., Oncogene 35, 2299-2310 (2016)).\nLung tissues were excised, fixed in formalin, embedded in paraffin, and cut into 4-μm-thick sections. Sections were stained with H&E, or subjected to sequential incubations with the indicated primary antibodies, biotinylated secondary antibodies and streptavidin-HRP."}, "human lung cancer cells": {"test_system": "human lung cancer cells", "assay": "Cell growth assays", "format": "cell-based", "protocol": "Cells were seeded into 12-well plates at a density of 5,000 cells per well, in the presence or absence of the indicated treatment. Cell density was determined by replacing the medium with 2 μmol/L of calcein AM in 1× dissociation solution (Trevigen) at the indicated time points. After 1 h of incubation, diesterase activity (relative fluorescence units) was measured with a Tecan Infinite 200 Microplate Reader, using an excitation wavelength of 485 nm and emission wavelength of 520 nm."}, "MDR1": {"test_system": "MDR1", "assay": "qPCR of MDR1 in A549 lung cancer cells", "format": "cell-based, human", "details": "with or without PDLIM2 reconstitution"}, "RelA": {"test_system": "RelA", "assay": "Subcellular fraction-IB assay of nuclear RelA in lung cancer cells", "format": "cell-based, human", "details": "for RelA activation: lung cancer cells"}, "[10]": {"details": "ΔSPC mice vs WT, carboplatin and paclitaxel combination therapy (Chemo)"}, "[11]": {"details": "ΔSPC mice, PD-1 blockade combined with carboplatin/paclitaxel chemotherapy"}}, "note": "“Also recorded” adds a separate entry of the source.", "data": [{"smiles": "Nc1ncn([C@H]2C[C@H](O)[C@@H](CO)O2)c(=O)n1", "note": "[5-aza-dC, 5-azadeoxycitidine]", "values": [{"measurement": "animal body weight", "setting": "[1]", "result": "body weight loss"}]}, {"smiles": "OO", "note": "[H2O2]", "values": [{"measurement": "PDLIM2 expression (qPCR)", "setting": "PDLIM2 [2]; RAW264.7 macrophages treated with H2O2", "result": "PDLIM2 expression decrease; also recorded: decreased PDLIM2"}, {"measurement": "nuclear BACH1 (nuclear fraction IB)", "setting": "BACH1 [3]; RAW264.7 macrophages", "result": "induced BACH1 nuclear translocation; also recorded: increased nuclear BACH1"}, {"measurement": "BACH1 and Pol II bound to the pdlim2 promoter (ChIP)", "setting": "BACH1 [3]; RAW264.7 mouse macrophages, 500 μM, 4 hours", "result": "detected BACH1 at the BACH1-binding site; also recorded: more BACH1 but less Pol II bound to the pdlim2 promoter"}]}, {"smiles": "CC(=O)N[C@@H](CS)C(=O)O", "note": "[NAC, N-Acetyl-L-cysteine]", "values": [{"measurement": "PDLIM2 expression (qPCR)", "setting": "PDLIM2 [2]; RAW264.7 macrophages in LLC lung tumor cell co-culture", "result": "could block the PDLIM2 suppression; also recorded: recovery"}, {"measurement": "BACH1 nuclear translocation in AMs (IF)", "setting": "BACH1 [4]", "result": "could efficiently be blocked; also recorded: inhibition of BACH1 nuclear translocation"}, {"measurement": "PDLIM2 in AMs (IF)", "setting": "PDLIM2 [5]", "result": "PDLIM2 induction"}, {"measurement": "PDLIM2 in AMs (qPCR)", "setting": "PDLIM2 [5]", "result": "could efficiently be blocked; also recorded: increased PDLIM2"}]}, {"smiles": "CC(/C=C/C(=O)NO)=C\\[C@@H](C)C(=O)c1ccc(N(C)C)cc1", "note": "[TSA, Trichostatin A]", "values": [{"measurement": "PDLIM2 expression (qPCR)", "setting": "PDLIM2 [6]; H460 human lung cancer cells", "result": "PDLIM2 recovery"}, {"measurement": "PDLIM2 expression (qPCR)", "setting": "PDLIM2 [6]; human lung cancer cell lines", "result": "induced PDLIM2 re-expression"}]}, {"smiles": "N.N.O=C([O-])C1(C(=O)[O-])CCC1.[Pt+2]", "note": "[carboplatin]", "values": [{"measurement": "tumor number and tumor burden", "setting": "[7]", "result": "significant decrease in tumor number and tumor burden"}, {"measurement": "lung cancer treatment (tumor examination)", "setting": "[7]; [10]", "result": "more resistant; also recorded: increased resistance"}, {"measurement": "lung cancer treatment (tumor examination)", "setting": "[7]; [11]", "result": "resistant; also recorded: more resistant"}, {"measurement": "PD-L1 expression (qPCR)", "setting": "PD-L1 [8]; Calu-6 human lung cancer cells", "result": "PD-L1 induction"}, {"measurement": "PD-L1 expression (qPCR)", "setting": "PD-L1 [8]; lung cancer cells", "result": "PD-L1 induction"}, {"measurement": "PD-L1 expression in lung cancer (IHC staining)", "setting": "PD-L1 [9]", "result": "PD-L1 induction"}]}, {"smiles": "CC(=O)O[C@H]1C(=O)[C@@]2(C)[C@H]([C@H](OC(=O)c3ccccc3)[C@]3(O)C[C@H](OC(=O)[C@H](O)[C@@H](NC(=O)c4ccccc4)c4ccccc4)C(C)=C1C3(C)C)[C@]1(OC(C)=O)CO[C@@H]1C[C@@H]2O", "note": "[paclitaxel]", "values": [{"measurement": "tumor number and tumor burden", "setting": "[7]", "result": "significant decrease in tumor number and tumor burden"}, {"measurement": "lung cancer treatment (tumor examination)", "setting": "[7]; [10]", "result": "more resistant; also recorded: increased resistance"}, {"measurement": "lung cancer treatment (tumor examination)", "setting": "[7]; [11]", "result": "resistant; also recorded: more resistant"}, {"measurement": "paclitaxel sensitivity (cell growth assays)", "setting": "human lung cancer cells; A549 cells with PDLIM2 reconstitution, consecutive 9-day paclitaxel cycles", "result": "increased paclitaxel sensitivity"}, {"measurement": "paclitaxel sensitivity (cell growth assays)", "setting": "human lung cancer cells; H460 cells with PDLIM2 reconstitution, consecutive 9-day paclitaxel cycles", "result": "increased paclitaxel sensitivity"}, {"measurement": "paclitaxel sensitivity (cell growth assays)", "setting": "human lung cancer cells; H460 human lung cancer cells with stable IκBα expression", "result": "overcame the paclitaxel resistance; also recorded: increased paclitaxel sensitivity"}, {"measurement": "acquired resistance to paclitaxel", "setting": "human lung cancer cells; lung cancer cells with ectopic PDLIM2 expression", "result": "overcame the acquired resistance; also recorded: block acquired resistance"}, {"measurement": "PD-L1 expression (qPCR)", "setting": "PD-L1 [8]; lung cancer cells", "result": "PD-L1 induction"}, {"measurement": "PD-L1 expression in lung cancer (IHC staining)", "setting": "PD-L1 [9]", "result": "PD-L1 induction"}, {"measurement": "MDR1 expression (qPCR)", "setting": "MDR1", "result": "PDLIM2 suppressed paclitaxel induction of MDR1"}, {"measurement": "nuclear RelA (subcellular fraction-IB)", "setting": "RelA; H460 human lung cancer cells reconstituted with PDLIM2", "result": "much lower paclitaxel induction of nuclear RelA"}, {"measurement": "RelA activation", "setting": "RelA", "result": "further induced"}, {"measurement": "RelA activation", "setting": "RelA; listed as Paclitaxel", "result": "increased RelA activation"}]}]}
